Reference: patent US7772210B2, “Cystitis treatment with high dose chondroitin sulfate” (Stellar Pharmaceuticals Inc., priority 2004, dated 2010)

How the values were obtained:
[1] = system: patients diagnosed with cystitis; conditions: 80 mgs and up to 200 mgs as a 40 mL instillation; cited from earlier work
[2] = Solubility of CS in water; type: physicochemical; conditions: room temperature, sterile, distilled water
Source text: In accordance with the present invention, the unit dose of CS administered to the patient is at least 250 mgs. More desirably, the unit dose of CS is at least 300 mgs. Preferably, the unit dose is at least 350 mgs. More preferably, the unit dose is at least 400 mgs. The upper end of the acceptable unit dose is capped, in theory, only by the solubility of the given type of CS in the chosen aqueous vehicle, and by the volume of that vehicle used in therapy. At room temperature and in sterile, distilled water, the solubility of CS approaches 50%. Thus, the upper limit of the CS unit dose can be 500 mgs/mL of vehicle. In accordance with the present invention, the unit dose of CS is desirably formulated in a solution volume that is sufficient to expose the bladder surface to be treated, and is at least tolerable and more desirably comfortable for the patient. The upper limit for such volumes lies below the volume causing hydrodistention, which is about 250 mL in some patients. For adult patients, solution volumes are suitably from about 5 mL or 10 mL up to about 100 mL, e.g. up to about 75 mL, and preferably up to about 50 mL. In a specific embodiment of the invention, a solution volume of about 40 mL is utilized. Accordingly, the upper limit of the unit dose of CS administrable to the patient at this volume can approach 20,000 mgs.

chondroitin sulfate [CS]
relief of symptoms including frequency, pain and urgency [1]: provided relief from at least one symptom | solubility [2]: about 50%
